Test results: US20220288028A1, “A THERAPEUTIC APPROACH FOR TREATING NON-INFECTIOUS OCULAR IMMUNOINFLAMMATORY DISORDERS” (The Schepens Eye Research Institute, Inc., priority 2019, published 2022)
Where no end group is shown, it is not given here.

Legend:
Foxp3^+CD4^+ Tregs = experiment: Isolated Tregs co-cultured with SP, with or without NK1R antagonist (recovered Tregs); format: cell-based, mice; conditions: SP at 0.1, 1, and 10 nM in vitro; tested 0.01-10 nM
Protocol: FIGS. 3A and 3B show the results of the in vitro effect of SP on Treg cells. The normal functional Foxp3^+CD4^+ Tregs were isolated from naive mice and co-cultured with different doses of SP, e.g., at 0.01, 0.1, 1, and 10 nM in vitro. […] On the contrary, addition of the NK1R antagonist prevented the loss of Tregs (FIG. 3B).

[1] = tested on: bone marrow-derived dendritic cells (BMDCs); experiment: BMDC maturation (MHC II expression) in the presence of SP, flow cytometry; format: cell-based, C57BL/6 mice; conditions: SP 25, 50 and 100 μg/mL for 18 hours; p=0.03 and p=0.02 for 50 and 100 μg/mL vs. vehicle
Protocol: Generation of Bone Marrow-Derived Dendritic Cells (BMDCs): Long bones (femur and tibia) were harvested from C57BL/6 mice and cell suspension was prepared. Cells were incubated with Red blood cell (RBC) lysis buffer (Sigma-Aldrich, St. Louis, Mo.) at 37° C. for 10 minutes. […]
Single Cell Suspension Preparation and Flow Cytometry: Submandibular and cervical draining lymph nodes (DLNs) were harvested and single cell suspensions were prepared. […] Stained cells were examined using an LSRII Flow Cytometer (BD Biosciences, Franklin Lakes, N.J., USA), and data were analyzed using commercial Summit software (Summit v4.3; Dako Colorado, Inc., Fort Collins, Colo.).
Mature APCs play a key role in the activation of THh17 cells and the autoimmune response in DED (Barabino S. et al. Prog Retin Eye Res 2012, 31:271-85; Stevenson W, Chauhan S K, Dana R: Dry eye disease: an immune-mediated ocular surface disorder. Arch Ophthalmol 2012, 130:90-100; Hamrah P, et al. Invest Ophthalmol Vis Sci 2003, 44:581-9). Given that increased SP levels in response to desiccating stress was observed, the effect of SP on maturation of APCs was next evaluated. […]

CD4^+CD25^+Foxp3^+ Tregs = experiment: Tregs co-cultured with SP with or without Spantide I: phenotype, cytokines, suppression of effector T cell proliferation; format: cell-based, C57BL/6 mice
Protocol: CD4^+CD25^+Foxp3^+ Tregs were isolated from draining lymph nodes (DLN) of naïve female C57BL/6 mice.
Isolated Tregs were co-cultured with SP (1 μM) with or without Spantide I (10 μM) for 48 hours. Phenotype of Tregs was evaluated by flow cytometry, and the capacity of Tregs to suppress effector T cell proliferation was investigated.

[2] = tested on: corneal epithelial wound healing; conditions: topical application, diabetic mice; cited from earlier work

## SP: substance P, an 11-amino acid neuropeptide, endogenous ligand of NK1R (RPKPQQFFGLM-NH2; ends and bridges not checked; UniProt P20366 58-68, looked up)
Foxp3^+CD4^+ Tregs
  Tregs recovered after co-culture with SP: significantly reduced Tregs
[1]
  mean fluorescence intensity (MFI) of MHC II in BMDCs: significant and dose-dependent increase
CD4^+CD25^+Foxp3^+ Tregs; SP 1 μM, 48 hours, in vitro
  expression of inhibitory molecules Foxp3, CTLA4 and PD-1 by Tregs: suppresses the expression
  secretion of immunoregulatory cytokines (TGFβ and IL-10) by Tregs: significantly lower levels
CD4^+CD25^+Foxp3^+ Tregs; Tregs pre-incubated with SP
  capacity of Tregs to suppress effector T cell proliferation in vitro: lower capacity
[2]
  corneal epithelial wound healing: promotes corneal epithelial wound healing
